PubChem BioAssay (NCI)
≈ marks a conversion by molar mass, not a printed value.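 Test compounds were applied to cells in 96-well plates for 48 hours at 5 doses. GI50: concentration for 50% inhibition of growth. TGI denotes the concentration required for complete inhibition of growth.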

Columns and labels:
Experiment in all cases: NCI tumour cell line growth inhibition, 48 h
[1] = tested on: HCT-15 colon
[2] = tested on: DU-145 prostate
[3] = tested on: SK-MEL-28 melanoma
[4] = tested on: LOX IMVI melanoma
[5] = tested on: OVCAR-5 ovarian
[6] = tested on: HOP-62 NSCLC
[7] = tested on: NCI-H226 lung
[8] = tested on: MOLT-4 leukemia
[9] = tested on: SK-OV-3 ovarian
[10] = tested on: COLO 205 colon

Row | Compound | GI50 [1] | TGI [1] | GI50 [2] | TGI [2] | GI50 [3] | TGI [3] | GI50 [4] | TGI [4] | GI50 [5] | TGI [5] | GI50 [6] | TGI [6] | GI50 [7] | TGI [7] | GI50 [8] | TGI [8] | TGI [9] | TGI [10] | GI50 [10]
1 | COC(=O)C(C)NP(=O)(OCc1cccc(Cn2cnc3c(N)ncnc32)c1)Oc1ccccc1 (centres undefined) | > 100 µM | > 100 µM | > 100 µM | > 100 µM | > 100 µM | > 100 µM | 48.9 µM | > 100 µM | > 100 µM | > 100 µM | > 100 µM | > 100 µM | > 100 µM | > 100 µM | 38.3 µM | > 100 µM | – | – | –
2 | CC(C)C(=O)Cc1ccc2ccccc2n1 | – | > 100 µM | – | > 100 µM | – | > 100 µM | – | > 100 µM | – | > 100 µM | – | > 100 µM | – | > 100 µM | – | – | > 100 µM | > 100 µM | –
3 | Nc1nccc(NCC2(CO)CC(CCc3ccccc3)C2)n1 (centres undefined) | – | 36.1 µM | – | 30.6 µM | – | 36.5 µM | – | 34.4 µM | – | 34.2 µM | – | 38 µM | – | 51.7 µM | – | 41.7 µM | – | 29.5 µM | –
4 | N#CC1=C(S)N(C2OC(CO)C(O)C(O)C2O)C(c2ccccc2)=CC1c1ccco1 (centres undefined) | – | > 100 µM | – | > 100 µM | – | > 100 µM | – | 93 µM | – | > 100 µM | – | > 100 µM | – | > 100 µM | – | > 100 µM | – | – | –
5 | CC(=O)n1c2ccc(Br)cc2c2nc3ccccc3nc21 | – | > 100 µM | – | > 100 µM | – | > 100 µM | – | > 100 µM | – | > 100 µM | – | > 100 µM | – | > 100 µM | – | > 100 µM | – | > 100 µM | –
6 | Cc1cc2nnn(C3CCCCO3)c2cc1C (centres undefined) | – | > 100 µM | – | > 100 µM | – | – | – | – | – | > 100 µM | – | > 100 µM | – | > 100 µM | – | > 100 µM | > 100 µM | > 100 µM | –
7 | NS(=O)(=O)c1c(O)c2ccccc2oc1=O | – | – | – | > 100 µM | – | > 100 µM | – | > 100 µM | – | > 100 µM | – | > 100 µM | – | > 100 µM | – | > 100 µM | – | > 100 µM | –
8 | O=C(c1c(F)c(F)c(F)c(F)c1F)n1c(=S)n(C(=O)c2c(F)c(F)c(F)c(F)c2F)c2ccccc21 | – | > 100 µM | – | > 100 µM | – | > 100 µM | – | > 100 µM | – | > 100 µM | – | > 100 µM | – | – | – | 54.3 µM | > 100 µM | > 100 µM | –
9 | CC1C(OS(=O)(=O)c2ccc3[nH]c(=S)sc3c2)CC2C3(C)CCC2(C(C)C(=O)O)C(O)C13 (centres undefined) | – | 27.1 µM | – | 40.4 µM | – | > 100 µM | – | – | – | 93.3 µM | – | 66.5 µM | – | 60.4 µM | – | > 100 µM | > 100 µM | 38 µM | –
10 | CC[C@@H]1CC[C@@H]2[C@H](CC[C@]3(C)[C@@H](O[N+](=O)[O-])CC[C@@H]23)[C@H]1C(C)=O | – | > 100 µM | – | > 100 µM | – | > 100 µM | – | 39.5 µM | – | > 100 µM | – | > 100 µM | – | > 100 µM | – | > 100 µM | – | 24.4 µM | –
11 | O=C1/C(=C/c2ccc(Br)s2)NC(=S)N1CN1CCCCC1 | – | > 100 µM | – | > 100 µM | – | > 100 µM | – | 52 µM | – | > 100 µM | – | > 100 µM | – | > 100 µM | – | 66.8 µM | – | 37.2 µM | –
12 | COc1cc(Nc2nc3cc(C)ccc3nc2-c2ccccc2)cc(OC)c1OC | – | 48.7 µM | – | – | – | 55.1 µM | – | > 100 µM | – | > 100 µM | – | – | – | – | – | 76.6 µM | > 100 µM | 43.7 µM | –
13 | CC(C)(C)OC(=O)CC(NC(=O)OCc1ccccc1)NC(=O)OC(C)(C)C (centres undefined) | 56 µg/mL | – | 72.3 µg/mL | – | 67.6 µg/mL | – | 71.2 µg/mL | – | – | – | – | – | – | – | 23.5 µg/mL | 55.6 µg/mL | – | – | 50.6 µg/mL (≈ 128 µM)
14 | C(=NC12CC3CC(CC(C3)C1)C2)C1CCCCC1 | – | > 100 µM | – | > 100 µM | – | – | – | – | – | > 100 µM | – | > 100 µM | – | > 100 µM | – | > 100 µM | – | > 100 µM | –
15 | CS(=O)(=O)CCC1CCC(=O)O1 (centres undefined) | – | > 100 µM | – | > 100 µM | – | > 100 µM | – | > 100 µM | – | > 100 µM | – | > 100 µM | – | > 100 µM | – | > 100 µM | – | – | –
16 | COC(=O)C(=O)C(C(=O)C(=O)Nc1cccc(OC)c1)c1nc2ccc(Cl)cc2[nH]c1=O (centres undefined) | – | > 100 µM | – | > 100 µM | – | > 100 µM | – | > 100 µM | – | > 100 µM | – | – | – | > 100 µM | – | > 100 µM | > 100 µM | > 100 µM | –
17 | COC(=O)c1sc(=S)sc1SCc1cccc(CSc2sc(=S)sc2C(=O)OC)c1 | – | > 100 µM | – | > 100 µM | – | > 100 µM | – | > 100 µM | – | > 100 µM | – | 67.1 µM | – | – | – | > 100 µM | 51.3 µM | > 100 µM | –
18 | Fc1ccc2c(c1)SC1=Nc3sc4cc(F)ccc4[n+]3CN12 | – | > 100 µM | – | > 100 µM | – | > 100 µM | – | 52.5 µM | – | > 100 µM | – | 56.1 µM | – | 56.8 µM | – | – | > 100 µM | > 100 µM | –
19 | CCN(CC)c1ccc(Cl)c2c1C(O)(C(C)C)C2(C)C (centres undefined) | – | 44.9 µM | – | – | – | 37.1 µM | – | 35.1 µM | – | 30.6 µM | – | 39 µM | – | 33.6 µM | – | 35.8 µM | 29.3 µM | 28.9 µM | –
20 | O=c1[nH]c2ccccc2c2oc3ccccc3c12 | – | > 100 µM | – | > 100 µM | – | > 100 µM | – | – | – | – | – | > 100 µM | – | > 100 µM | – | > 100 µM | > 100 µM | > 100 µM | –
21 | C#CCN(C(=O)C(F)(F)F)C(/C=C\C(=O)OC)(C(=O)OCC)C(=O)OCC | – | > 100 µM | – | > 100 µM | – | > 100 µM | – | > 100 µM | – | > 100 µM | – | > 100 µM | – | > 100 µM | – | > 100 µM | > 100 µM | – | –
22 | CN(CC(=O)Nc1ccccc1C(=O)O)c1ccccc1 | – | > 100 µM | – | > 100 µM | – | > 100 µM | – | > 100 µM | – | > 100 µM | – | > 100 µM | – | > 100 µM | – | > 100 µM | – | – | –
23 | CC(=O)Nc1ccc2c(c1)C(=O)c1ccccc1-2 | – | > 100 µM | – | – | – | > 100 µM | – | > 100 µM | – | – | – | > 100 µM | – | > 100 µM | – | > 100 µM | > 100 µM | > 100 µM | –
24 | CCOC(OCC)(OCC)C(Br)CC (centres undefined) | – | – | – | – | – | > 100 µM | – | > 100 µM | – | > 100 µM | – | > 100 µM | – | > 100 µM | – | > 100 µM | > 100 µM | > 100 µM | –
